Data from publication PMC2912373, “Low-Density Lipoprotein Receptor-Related Protein 1 (LRP1) Mediates Neuronal Aβ42 Uptake and Lysosomal Trafficking” (PLoS ONE, 2010).

Key:
GT1-7 cells = assay: FAM-Aβ42 internalization after LRP1 siRNA knockdown, FACS; format: cell-based; details: 500 nM FAM-Aβ42, 37°C, 4 h, 72 h after LRP1 siRNA; FACS of pronase-treated cells
Description: To rule out cell type-specific effects and artifacts due to the expression of LRP1 minireceptor, we performed similar FAM-Aβ42 uptake experiments in GT1-7 neuronal cells with reduced endogenous LRP1 levels by siRNA knockdown (Fig. 3A), and in mouse embryonic fibroblasts from both wild-type (MEF1) and LRP1 knockout mice (MEF2) (Fig. 3B). GT1-7 cells were plated and treated as indicated in the Experimental Procedures and GT1-7 and MEF cells were incubated with 500 nM of FAM-Aβ42 at 37°C for 4 h. Steady-state levels of intracellular Aβ42 were determined by flow cytometric analysis of pronase-treated cells. […]
Figure 3 LRP1 mediates internalization and accumulation of Aβ42 in GT1-7 and MEF cells. […] After 72 h, cells were treated with 500 nM FAM-Aβ42 for 4 h and intracellular Aβ42 was determined by flow cytometric analyses of pronase-treated cells as described in the Experimental Procedures. […] Wild type (MEF1) and LRP1 knockout (MEF2) fibroblasts were treated with 500 nM FAM-Aβ42 for 4 h, and intracellular Aβ42 was determined by flow cytometric analyses. ** p<0.01, t-test. n = 3. C, cell lysates from GT1-7 and MEF cells treated as in A and B, analyzed by 7.5% SDS-PAGE, and Western blotted with anti-LRP1 antibodies.
For quantification of Aβ uptake experiments, stable N2a cells were plated into 12-well plates at 16,250 cells/cm^2 and grown overnight. […]

N2a-mLRP4 cells = assay: Steady-state FAM-Aβ42 accumulation (continuous feeding), FACS; format: cell-based, mouse; details: for levels of FAM-Aβ42 in N2a-mLRP4 cells compared to N2a-pcDNA3 cells: 500 nM FAM-Aβ42, 37°C, n = 3
Description: To determine whether internalized Aβ42 is accumulated over time, we performed continuous feeding experiments of FAM-Aβ42 in N2a-pcDNA3 and N2a-mLRP4 cells. The steady-state levels and localization of Aβ42 were determined by flow cytometry and confocal microscopy, respectively (Fig. 2). Cells were incubated with 500 nM FAM-Aβ42 at 37°C for 24, 48 or 72 h and the content of fluorescence per cell was quantified by FACS and presented as a percentage of the levels in N2a-pcDNA3 at each time point (Fig. 2A). […] Therefore, we analyzed the subcellular localization of internalized FAM-Aβ42 by confocal microscopy in N2a cells treated as before and analyzed co-localization with lysosomes. For the visualization of acidic organelles, a brief incubation with LysoTracker Red at the end of the experiment was included (Fig. 2B). After 24 h of incubation, a small amount of cell-associated Aβ42 can be detected in N2a-mLRP4 cells.
Figure 2 Increased accumulation of intracellular Aβ42 within lysosomes in LRP1 minireceptor-expressing cells. A, increased Aβ42 accumulation in LRP1 minireceptor-expressing cells. N2a-mLRP4 and N2a-pcDNA3 cells were treated with 500 nM of FAM-Aβ42 at 37°C for 24, 48 and 72 h, and steady-state levels of intracellular Aβ42 were determined by flow cytometric analyses of pronase-treated cells as described in the Experimental Procedures. […] B, increased co-localization of intracellular Aβ42 and lysosomes in N2a-mLRP4 cells. N2a-pcDNA3 and N2a-mLRP4 cells were grown in glass chamber slides and treated with 500 nM of FAM-Aβ42 at 37°C for 24, 48 and 72 h. Lysosomes were labeled with LysoTracker 30 min before the end of each incubation. Cells were then fixed and analyzed by confocal microscopy.
For quantification of Aβ uptake experiments, stable N2a cells were plated into 12-well plates at 16,250 cells/cm^2 and grown overnight. Similar to imaging assays, cells were washed twice with PBS and incubated for the indicated periods of time with pre-warmed internalization media containing 500 nM FAM -Aβ42. After incubation, cells were washed twice with PBS and non-enzymatically detached as before in 500 µL cell dissociation solution. Cells were sequentially washed once with 1 mL of cold internalization media and twice with 2 mL cold PFN. Cells were finally resuspended in PFN-1% PFA and analyzed by FACS as before. For MEF-1 and MEF-2 experiments, 5,000 cells/cm^2 were plated in 12-well plates the day before. Cells were then washed twice with PBS and incubated 4 h with pre-warmed internalization media containing 500 nM FAM-Aβ42. After completion of the incubation time, cells were processed by FACS analysis as described above for N2a cells.
LRP1 knockdown was carried out in GT1-7 cells by siRNA transfection using Lipofectamine 2000 (Invitrogen, Carlslab, CA) and 120 nM of dsRNA duplex (Ambion, Austin, TX). Briefly, cells were plated in 6-well plates the day before transfection and grown overnight. Scrambled and LRP1 siRNA duplexes were generated according to the manufacturer's instruction and complexed with Lipofectamine 2000 as previously described. FAM-Aβ42 experiments were performed 72 h after siRNA transfection and analyzed as previously described for N2a cells. For clathrin heavy chain knockdown, shRNA lentiviruses were produced in the Viral Vectors Core facility at Washington University School of Medicine. In brief, 293T cells were transfected with pLKO.1-derived constructs together with the pHR'8.2ΔR and pCMV-VSV-G packaging systems as previously described. […]

FAM-Aβ42: FAM-Aβ42 peptide (23526) from Anaspec; amyloid-β 42 with carboxyfluorescein at the N-terminal region
internalization of FAM-Aβ42 in cells with decreased LRP1 levels vs scrambled siRNA control (GT1-7 cells): decrease | levels of FAM-Aβ42 in N2a-mLRP4 cells compared to N2a-pcDNA3 cells (N2a-mLRP4 cells; 24 h, FACS of pronase-treated cells): slight increase | levels of FAM-Aβ42 in N2a-mLRP4 cells compared to N2a-pcDNA3 cells (N2a-mLRP4 cells; 48 h, FACS of pronase-treated cells): twice the levels | levels of FAM-Aβ42 in N2a-mLRP4 cells compared to N2a-pcDNA3 cells (N2a-mLRP4 cells; 72 h, FACS of pronase-treated cells): twice the levels | cell-associated FAM-Aβ42 in N2a-mLRP4 cells compared to N2a-pcDNA3 cells (N2a-mLRP4 cells; 500 nM, 48 h, FACS, pronase-treated and untreated cells): increases | FAM-Aβ42 uptake in clathrin knocked down cells compared to control, empty lentivirus (N2a-mLRP4 cells; N2a-mLRP4, clathrin heavy chain shRNA lentivirus, 500 nM, 48 h, FACS of pronase-treated cells): twofold decrease
